US4525348A, “Pranoprofen gelled ointment” (priority 1983, dated 1985)

Columns and labels:
[1] = oral administration, as compared with indomethacin or other nonsteroid agents; cited from earlier work
[2] = Percutaneous absorption and excretion (Experiment 8); settings: rat
From the text: Male Donryu rats weighing 120-140 g were divided into groups of 4 animals each. The backs of the rats were shaved with an electric clipper and an electric shaver. […] After this application, the test ointment remaining was wiped off at a set time with absorbent cotton moistened with 50% ethanol. The contained ^14 C was eluted with methanol and determined by conventional methods.

CC(C(=O)O)c1ccc2c(c1)Cc1cccnc1O2 (stereo not drawn) [pranoprofen]
Adverse effects such as gastroenteric disorders [1]: very rarely | Half life of disappearance from blood ([2]; absorbed pranoprofen, topical): about 5 hours | Excretion route ([2]; in vivo): excreted mainly into urine and feces
